Results: patent US20240075087A1, “COMPOSITIONS AND METHODS COMPRISING HEMP EXTRACT FOR THE TREATMENT OF ANIMALS IN NEED” (Portland Technology Holdings LLC, priority 2021, published 2024)
In brackets after ≈: the same amount, converted by molar mass.

Assays:
[1] = system: HMPOS osteosarcoma cell line; assay: 48 hours MTT proliferation assay, HMPOS; assay type: cell-based, canine; conditions: pure compound
Experimental: 3-(4,5-Dimethylthaizol-2-yl)-2,5-diphenyltetrazolium bromide (MTT) assays are performed on all previously described cell lines; CMT12, HMPOS, D17, Abrams and 17-71. […] Cells are treated with vehicle (methanol or ethanol/DMSO mix) or various concentrations of the CBD, CBDA or CBD-rich hemp extract ranging from 0.42 to 20 μg/mL in serial dilution for 48 hours. MTT assays are performed after 48 hours of treatment by adding 20 μL of MTT dye ([…] filtered 5 mg/mL in phosphate-buffered saline [PBS]) to each well and incubating at 37° C. in 5% CO2 for 2 hours. The media is then aspirated, washed once with 200 μL of PBS and then solubilized in 200 μL of ethanol. Immediate analysis of the optical density of each well is performed using a spectrophotometric plate reader (Epoch; Biotek, Winooski, Vermont) at a wavelength of 570 nm as previously described (e.g., Vega-Avila E and Pugsley M K, An overview of colorimetric assay methods used to assess survival or proliferation of mammalian cells, Proc West Pharmacol Soc., 2011, 54, pp. 10-14 which is incorporated herein by reference in its entirety). The percent proliferating cells of control for each concentration is averaged and reported as a mean+/—SD from triplicate wells over three experiments.
For CBD, CBDA and hemp extract concentrations needed to obtain a 50% inhibition of cell proliferation (IC50) are then calculated across experiments by Probit analysis using XLFit5 software (IDBS, Guildford, United Kingdom) for reporting the results for each cell line.

CMT12 cells = assay: Trypan blue exclusion assay, CMT12; assay type: cell-based, canine; conditions: 48 hours, vehicle control 3±1%
Experimental: (§1) The trypan blue exclusion assay is performed on canine primary dermal fibroblasts (CDF) because of the slow rate of proliferation and low metabolic activity of these normal canine cells, precluding productive MTT assays. The effects of CBD treatments are compared with the results obtained on the 17-71, CMT12 and D17 cell lines for comparative purposes. For the CDF cells, applied cell extracellular matrix (ABM) is applied overnight to 24-well tissue culture-treated plates (Applied Biological Materials [ABM], Richmond, BC, Canada). For all cell lines, cells are plated at a density of 5×10^3 cells per well and incubated until 60% confluent before treatment with methanol vehicle control, 3.75, 7.5, and 15 μg/mL of CBD to cells for 48 hours. Cells are then trypsinized, collected and centrifuged at 1900 g for 10 minutes. With the exception of the 17-71 cell line, cells are detached with Accumax (Invitrogen, Carlsbad, California). The cell pellet is resuspended in 0.1% trypan blue (Sigma Aldrich, St Louis, Missouri) in PBS solution, loaded on a Cell Countess disposable cell counting slide with automatic counting of all positively stained cells in the Countess II Cell Counter under identical settings for each cell line (Invitrogen; ThermoFisher Scientific, Carlsbad, California) using the same parameters for each cell line. All treatments are performed in triplicate and the percent of viable cells are averaged.

CYP2B11 = target: T1, CYP2B11 (Canis lupus familiaris, UniProt P24460); assay: CYP2B11 activity inhibition in pooled dog liver microsomes
T1 sequence (P24460 1-494): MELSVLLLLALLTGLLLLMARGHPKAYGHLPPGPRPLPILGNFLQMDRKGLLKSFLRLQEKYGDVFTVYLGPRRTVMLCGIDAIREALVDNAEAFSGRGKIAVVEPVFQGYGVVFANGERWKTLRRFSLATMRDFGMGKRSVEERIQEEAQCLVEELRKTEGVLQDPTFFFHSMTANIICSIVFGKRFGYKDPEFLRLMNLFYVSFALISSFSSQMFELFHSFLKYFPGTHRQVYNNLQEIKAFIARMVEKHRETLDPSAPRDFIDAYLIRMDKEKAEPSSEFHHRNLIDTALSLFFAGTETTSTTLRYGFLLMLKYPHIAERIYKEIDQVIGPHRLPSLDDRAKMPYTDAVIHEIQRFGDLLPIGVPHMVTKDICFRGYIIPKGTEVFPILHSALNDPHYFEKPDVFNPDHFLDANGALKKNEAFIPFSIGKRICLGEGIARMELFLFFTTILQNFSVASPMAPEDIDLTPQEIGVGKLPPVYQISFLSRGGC
Experimental: (§2) Inhibition potency (i.e. IC50) is determined by measuring the decrement in metabolism of P450-specific marker activities in pooled dog liver microsomes with increasing concentrations of CBD, CBDA, and hemp extracts. P450-specific markers include bupropion 6-hydroxylation (CYP2B11), dextromethorphan 0-demethylation (CYP2D15) and omeprazole sulfoxidation (CYP3A12). IC50 values are determined both with and without preincubation of liver microsomes with potential inhibitor to evaluate whether there is mechanism-based time-dependent inhibition.
(§3) The following parameters are assessed: (1) the rates of CBD and CBDA metabolism by dog liver microsomes and by 11 recombinant canine P450 enzymes; (2) the predicted percent contribution of each P450 to total CBD and CBDA metabolism in dog liver; and (3) IC50 values for inhibition of CYP2B11, CYP2D15 and CYP3A12 metabolism in dog liver, both with and without inhibitor preincubation.
(§4) FIGS. 13-15 show activity assays for CYP3A12 (FIGS. 13A and 13B), CYP2B11 (FIGS. 14A and 14B), and CYP2D15 (FIGS. 15A and 15B). Assays using either no preincubation (FIGS. 13A, 14A, and 15A) or 20 minutes of preincubation (FIGS. 13B, 14B, and 15B) were performed.

D17 cells = assay: Trypan blue exclusion assay, D17; assay type: cell-based, canine; conditions: 48 hours, vehicle control 5±1%
Experimental: as §1

17-71 cells = assay: Trypan blue exclusion assay, 17-71; assay type: cell-based, canine; conditions: 48 hours, vehicle control 3±1%
Experimental: as §1

CYP3A12 = CYP3A12 (Canis lupus familiaris, UniProt P24463); assay: CYP3A12 activity inhibition in pooled dog liver microsomes
Experimental: as §2, §3, §4

CYP3A12, sequence (P24463 whole entry): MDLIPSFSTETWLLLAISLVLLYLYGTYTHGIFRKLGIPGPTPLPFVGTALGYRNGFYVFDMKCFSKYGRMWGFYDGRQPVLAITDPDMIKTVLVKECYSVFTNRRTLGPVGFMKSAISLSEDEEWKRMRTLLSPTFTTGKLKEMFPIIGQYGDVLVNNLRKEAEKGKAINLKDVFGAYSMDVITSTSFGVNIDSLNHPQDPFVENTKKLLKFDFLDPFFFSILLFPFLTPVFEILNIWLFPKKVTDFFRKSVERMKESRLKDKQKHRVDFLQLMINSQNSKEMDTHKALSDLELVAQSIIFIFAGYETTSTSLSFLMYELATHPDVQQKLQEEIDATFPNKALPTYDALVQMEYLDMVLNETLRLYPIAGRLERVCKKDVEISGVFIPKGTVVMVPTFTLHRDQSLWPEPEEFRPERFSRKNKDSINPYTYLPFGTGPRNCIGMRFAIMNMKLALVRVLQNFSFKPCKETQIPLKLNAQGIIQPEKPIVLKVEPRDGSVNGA

Structure (SMILES): C=C(C)[C@@H]1CCC(C)=C[C@H]1c1c(O)cc(CCCCC)cc1O [CBD, cannabidiol]
- IC50 ([1]; Canis lupus familiaris, read-out: IC50 (Probit)): 3.6 µg/mL (≈ 11.4 µM)
- concentrations that significantly diminished proliferation vs vehicle control ([1]; P<0.05): ≥ 5 µg/mL
- percent trypan blue positive cells (CMT12 cells; 3.75 μg/mL CBD): 4±2%
- percent trypan blue positive cells (CMT12 cells; 7.5 μg/mL CBD): 9±3%
- percent trypan blue positive cells (CMT12 cells; 15 μg/mL CBD): 87%±8%
- IC50 (CYP2B11): < 1 µM
- time-dependent inhibition (TDI) (CYP2B11; CYP2B11, no preincubation vs 20 min preincubation, 10 μM): showed time-dependent inhibition (TDI)
- percent trypan blue positive cells (D17 cells; 3.75 μg/mL CBD): 4±2%
- percent trypan blue positive cells (D17 cells; 7.5 μg/mL CBD): 5±2%
- percent trypan blue positive cells (D17 cells; 15 μg/mL CBD): 35±4%
- percent trypan blue positive cells (17-71 cells; 3.75 μg/mL CBD): 7±4%
- percent trypan blue positive cells (17-71 cells; 7.5 μg/mL CBD): 27±8%
- percent trypan blue positive cells (17-71 cells; 15 μg/mL CBD): 55%±6%
- IC50 (CYP3A12): < 1 µM
- time-dependent inhibition (TDI) (CYP3A12; CYP3A12, no preincubation vs 20 min preincubation, 10 μM): showed time-dependent inhibition (TDI)
